How the values of the data set were obtained: In the present invention, the bio-availability and the vascular and metabolic effect of an oral administration of L-arginine (6.6 g) contained in the formulation of the invention (6 biscuits) compared either to the same food preparation (6 biscuits) prepared without the addition of L-arginine or to 6.6 g of powdered L-arginine were evaluated in healthy subjects.
Seven healthy subjects (2M/5F) participated in the study.
A complete medical history and a physical examination including height, weight, waist and hip circumferences and blood pressure measurements were taken for each subject. It was asked to all subjects to follow a 2000 kcal/die standard diet, according to LARN (Livelli di Assunzione Giornalieri Raccomandati di Nutrienti per la Popolazione Italiana) recommendations and to complete a 3 day food diary (two working days and one holiday day) before every test to obtain accurate information on short-term food intake. Food diaries were elaborated with a dedicated software to decode foods (Nutritionist Pro 2.5, Axial System, Stafford, Tex.), modified introducing the L-arginine contents, obtained from INRAN and USDA database, in more than 700 different foods items.
The portion of 6 biscuits further contained a total amount of 21.9 g of carbohydrates (17.9 g of starch and 4.0 g of sugars), 3.6 g of proteins, 7.5 g of fats and 4.3 g of fibers. A fixed amount of 250 ml of natural water was taken with the food preparation. […] A fixed amount of 250 ml of natural water was taken with the food preparation. • The third test consisted in the oral administration of 6.6 g of powdered L-arginine diluted in 250 ml of natural water. The Study Design is represented in FIG. 2. After an overnight fast, a 20-gauge plastic cannula (Abbocath T; Abbocath, Ireland LTD, Sling, Ireland) was inserted in a large antecubital vein for intermittent sampling. Samples for the evaluation of glucose, insulin, NOx and L-arginine levels were evaluated at 0, 30, 60, 90, 120, 180 and 240 minutes. c-GMP levels were evaluated at 0, 60, 120, 180 and 240 minutes.
Basal blood pressure was taken in supine position after 10 min of rest, and the mean of two measurements was used as the value, after that blood pressure was also taken at time 0, 120, 180 and 240 minutes. Forearm blood flow (FBF) was measured by strain-gauge venous occlusion plethysmography. Before any measurement was taken, the hand circulation was occluded using a wrist cuff inflated to 240 mmHg. Baseline blood flow was calculated as the mean of at least three values. Reactive hyperaemia (endothelium-dependent vasodilation) was measured after the release of a 5-min arterial occlusion, produced by inflating a standard sphygmomanometer cuff on the upper arm to 100 mmHg above systolic blood pressure (SBP). These measurement were performed at basal and every 60 min until the end of the study. Peripheral resistance was calculated as a ratio between mean blood pressure and the FBF.
Glucose levels were measured with spectrophotometric methods adapted to Cobas MIRA using commercial kits (ABX, Montpellier, France). Insulin and proinsulin levels were assayed with ELISA kits (Insulin ELISA, Mercodia, Uppsala, Sweden and Proinsulin ELISA, DRG, Marburg, Germany). NOx levels were evaluated through the measurement of metabolic end products, i.e., nitrite and nitrate, using enzymatic catalysis coupled with Griess reaction. c-GMP levels were measured with radioimmunoassay kits (NEN Life Science Products, Boston, Mass., USA). L-Arginine were extracted from plasma samples by cation-exchange Strata SCX 100-mg columns (Phenomenex) and assayed by high-performance liquid chromatography.

Setting [1] is: healthy subjects, oral 6.6 g L-arginine.

This note sets out measurements from patent US20130289119A1, “FORMULATION COMPRISING ARGININE, USE AND PREPARATION THEREOF” (OSPEDALE SAN RAFFAELE S.R.L., priority 2010, published 2013).

SMILES strings stand for the structures.

In the case of `N=C(N)NCCC[C@H](N)C(=O)O` [powdered L-Arginine, L-arginine], for the setting “both, human, in vivo, po”, the “Incremental area under the curve for L-Arginine (ΔAUC L-Arginine)” value turned out to be 15050 ± 1353 µmol/L. Further, the “Percentage incremental increase of post-ischemic blood flow vs food preparation not containing L-Arginine” value (healthy subjects, forearm plethysmography) is listed as “significantly (p<0.02) increased”. Besides, under setting [1], the “cGMP plasma levels vs food preparation not containing L-Arginine” value is “significantly (p<0.03) higher”, the “nitric oxide (NOx) plasma levels vs food preparation not containing L-Arginine” value is given as “significantly (p<0.03) higher”, the “ΔAUC NOx vs food product not containing L-Arginine” value is recorded as “significantly (p<0.04) increased” and the “ΔAUC cGMP vs food product not containing L-Arginine” value is “significantly (p<0.04) increased”.
